According to patent US20260356841A1, “HETEROCYCLIC PYRIDINONE COMPOUNDS AS TRIGGERING RECEPTOR EXPRESSED ON MYELOID CELLS 2 AGONISTS AND METHODS OF USE” (Vigil Neuroscience, Inc., priority 2023, published 2026):

Target: T1, human TREM2 (Homo sapiens, UniProt Q9NZC2)
T1 construct: expressed in transfected cells; host or cells: HEK293T (HEK293T-hTREM2 cells)
Assay: TREM2 agonist potency by cellular phosphorylation of Spleen Tyrosine Kinase (Syk), AlphaLisa, HEK293T-hTREM2 cells
Type: cell-based
Settings: not given
Experimental: Measurement of TREM2 agonist potency was done using a HEK cell line expressing human TREM2 and DAP12 (HEK293T-hTREM2 cells). Binding of small molecules to, and activation of, TREM2 increases the phosphorylation of Syk. The resultant levels of Syk phosphorylation are measured using a commercial AlphaLisa reagent kit. To perform the assay, HEK-hTREM2 cells were plated at 14,000 cells per well in a 384 well plate, in 25 μL of complete growth media and incubated at 37° C., 5% CO2 for 20-24 hours.
Prior to the assay, test compounds were diluted in the 384 well plates in assay buffer and allowed to equilibrate for 30 minutes. Growth media was removed from cell plates by inversion on blotting paper, and 25 μL of test articles in assay buffer was added to cells. Cells were incubated for 45 minutes at room temperature. After 45 minutes, assay buffer was removed and 10 μL of lysis buffer was added. Plates were shaken for 20 minutes at 350 RPM at room temperature. After complete lysis, AlphaLisa reagents were added to the lysate, and fluorescence intensity was measured using a Perkin Elmer Envision plate reader. Intensities were used to generate a standard curve, and % activation was calculated. Curve fitting was performed using Prism v9 software, log (agonist) vs response-variable slope (four parameters), and EC50s were calculated from the curve fit.
The results presented in Table B have been generated with the in vitro assay described above. This assay may be used to test any of the compounds described herein to assess and characterize a compound's ability to act as an agonist of TREM2.

T1 sequence (Q9NZC2 19-230): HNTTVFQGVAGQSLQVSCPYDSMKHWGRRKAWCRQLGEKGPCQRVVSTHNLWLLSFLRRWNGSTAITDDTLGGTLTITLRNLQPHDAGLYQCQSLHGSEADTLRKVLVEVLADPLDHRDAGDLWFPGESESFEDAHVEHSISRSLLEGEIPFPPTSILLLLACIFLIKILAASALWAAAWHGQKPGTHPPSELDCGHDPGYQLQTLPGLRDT
T1 sequence (O43914 22-113 partner): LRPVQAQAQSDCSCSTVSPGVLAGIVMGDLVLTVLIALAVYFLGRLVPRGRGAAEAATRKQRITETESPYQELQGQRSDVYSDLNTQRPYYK

In the case of Cc1cc2c(-c3ccc(F)cc3F)nc(N3C[C@@H](C)O[C@@H](c4ccc(=O)n(C)c4)C3)cc2nc1C [Example 196, 5-((2S,6R)-4-(5-(2,4-difluorophenyl)-2,3-dimethyl-1,6-naphthyridin-7-yl)-6-methylmorpholin-2-yl)-1-methylpyridin-2 (1H)-one], the EC50 is reported as < 100 nM.

Same assay, conditions: hTREM2 EC50 Data (HEK293 Cells); Syk phosphorylation, AlphaLisa; read-out: hTREM2 EC50

Cc1cc(-n2cc([C@H]3C[C@@H](c4nc(C56CC(C(F)(F)F)(C5)C6)c5nc(C)c(C)nc5n4)CCO3)ccc2=O)cs1 [Example 105, 5-((2R,4S)-4-(6,7-dimethyl-4-(3-(trifluoromethyl)bicyclo[1.1.1]pentan-1-yl)pteridin-2-yl)tetrahydro-2H-pyran-2-yl)-1-(5-methylthiophen-3-yl)pyridin-2 (1H)-one] and Cc1nc2nc([C@H]3CCO[C@@H](c4ccc(=O)n(C)c4)C3)nc(C34CC(C(F)(F)F)(C3)C4)c2nc1C [Example 25, 5-((2R,4S)-4-(6,7-dimethyl-4-(3-(trifluoromethyl)bicyclo[1.1.1]pentan-1-yl)pteridin-2-yl)tetrahydro-2H-pyran-2-yl)-1-methylpyridin-2(1H)-one] cannot be ordered by EC50: < 100 nM for the first, < 100 nM for the second.

Cc1nc2nc([C@H]3CCO[C@@H](c4ccc(=O)n(N(C)C)c4)C3)nc(C34CC(C(F)(F)F)(C3)C4)c2cc1C(F)(F)F [Example 336, 1-(dimethylamino)-5-((2R,4S)-4-(7-methyl-6-(trifluoromethyl)-4-(3-(trifluoromethyl)bicyclo-[1.1.1]pentan-1-yl)pyrido[2,3-d]pyrimidin-2-yl)tetrahydro-2H-pyran-2-yl)pyridin-2 (1H)-one] and CC(C)=Nn1cc([C@H]2C[C@@H](c3nc(C45CC(C(F)(F)F)(C4)C5)c4cc(C(F)(F)F)c(C)nc4n3)CCO2)ccc1=O [Example 208, 5-((2R,4S)-4-(7-methyl-6-(trifluoromethyl)-4-(3-(trifluoromethyl)bicyclo[1.1.1]pentan-1-yl)pyrido[2,3-d]pyrimidin-2-yl)tetrahydro-2H-pyran-2-yl)-1-(propan-2-ylideneamino)pyridin-2 (1H)-one] cannot be ordered by EC50: < 100 nM for the first, < 100 nM for the second.

Cc1nc2nc([C@@H]3CCO[C@H](c4ccc(=O)n(C5CC5)c4)C3)nc(C34CC(C(F)(F)F)(C3)C4)c2nc1C [Example 75, 1-cyclopropyl-5-[(2S,4R)-4-[6,7-dimethyl-4-[3-(trifluoromethyl)-1-bicyclo[1.1.1]-pentanyl]-pteridin-2-yl]tetrahydropyran-2-yl]pyridin-2-one] and Cc1nc2nc([C@H]3CCO[C@@H](c4ccc(=O)n(C5COC5)c4)C3)nc(C34CC(C(F)(F)F)(C3)C4)c2nc1C [Example 107, 5-[(2R,4S)-4-[6,7-dimethyl-4-[3-(trifluoromethyl)-1-bicyclo[1.1.1]pentanyl]pteridin-2-yl]tetrahydropyran-2-yl]-1-(oxetan-3-yl)pyridin-2-one] cannot be ordered by EC50: < 100 nM for the first, < 100 nM for the second.

COc1nc2c(C34CC(C(F)(F)F)(C3)C4)nc([C@H]3CCO[C@@H](c4ccc(=O)n(CC#N)c4)C3)nc2nc1C [Example 145, 2-[5-[(2R,4S)-4-[6-methoxy-7-methyl-4-[3-(trifluoromethyl)-1-bicyclo-[1.1.1]pentanyl]pteridin-2-yl]tetrahydropyran-2-yl]-2-oxo-1-pyridyl]acetonitrile] and [2H]C([2H])([2H])n1cc([C@H]2C[C@@H](c3nc(C45CC(C(F)(F)F)(C4)C5)c4nc(C)c(C)nc4n3)CCO2)ccc1=O [Example 36] cannot be ordered by EC50: < 100 nM for the first, < 100 nM for the second.

Cc1nc2nc([C@@H]3CCO[C@H](c4ccc(=O)n(C)c4)C3)nc(-c3ccc(C(F)(F)F)cc3F)c2nc1C [Example 5, 1-methyl-5-[(2S,4R)-4-[4-[2-fluoro-4-(trifluoromethyl)phenyl]-6,7-dimethyl-pteridin-2-yl]tetrahydropyran-2-yl]pyridin-2-one] and Cc1nc2nc([C@H]3CCO[C@@H](c4ccc(=O)n(C(C)C)c4)C3)nc(-c3ccc(C(F)(F)F)cc3F)c2nc1C [Example 68, 1-isopropyl-5-[(2R,4S)-4-[4-[2-fluoro-4-(trifluoromethyl)-phenyl]-6,7-dimethyl-pteridin-2-yl]tetrahydropyran-2-yl]pyridin-2-one] cannot be ordered by EC50: < 100 nM for the first, < 100 nM for the second.

Cc1nc2nc([C@H]3CCO[C@@H](c4ccc(=O)n(-c5cnco5)c4)C3)nc(C34CC(C(F)(F)F)(C3)C4)c2nc1C [Example 116, 5-((2R,4S)-4-(6,7-dimethyl-4-(3-(trifluoromethyl)-bicyclo-[1.1.1]pentan-1-yl)pteridin-2-yl)tetrahydro-2H-pyran-2-yl)-1-(oxazol-5-yl)pyridin-2(1H)-one] and Cc1cnc2c(C34CC(C(F)(F)F)(C3)C4)nc([C@H]3CCO[C@@H](c4ccc(=O)n(C)c4)C3)nc2n1 [Example 123, 1-methyl-5-((2R,4S)-4-(7-methyl-4-(3-(trifluoromethyl)bicyclo-[1.1.1]pentan-1-yl)pteridin-2-yl)tetrahydro-2H-pyran-2-yl)pyridin-2(1H)-one] cannot be ordered by EC50: < 100 nM for the first, < 100 nM for the second.

Cc1nc2nc([C@H]3CCO[C@@H](c4ccc(=O)n(C)c4)C3)nc(-c3cc(F)c(C(F)(F)F)cc3F)c2nc1C [Example 350] and Cc1nc2nc([C@H]3CCO[C@@H](c4ccc(=O)n(C)c4)C3)nc(-c3ccc(F)cc3F)c2nc1C [Example 1, 1-methyl-5-[(2R,4S)-4-[4-(2,4-difluorophenyl)-6,7-dimethyl-pteridin-2-yl]tetrahydropyran-2-yl]pyridin-2-one] cannot be ordered by EC50: < 100 nM for the first, < 100 nM for the second.

Cc1nc2nc(N3CCC(F)(F)C(c4ccc(=O)n(C)c4)C3)nc(-c3ccc(F)cc3F)c2nc1C (stereo not shown) [Example 190, 5-[1-[4-(2,4-difluorophenyl)-6,7-dimethyl-pteridin-2-yl]-4,4-difluoro-3-piperidyl]-1-methyl-pyridin-2-one] and Cc1nc2nc([C@@H]3CCO[C@@H](c4ccc(=O)n(C5CC5)c4)C3)nc(-c3ccc(C(F)(F)F)cc3F)c2nc1C [Example 66, 1-cyclopropyl-5-[(2R,4R)-4-[4-[2-fluoro-4-(trifluoromethyl)phenyl]-6,7-dimethyl-pteridin-2-yl]tetrahydropyran-2-yl]pyridin-2-one] cannot be ordered by EC50: < 100 nM for the first, < 100 nM for the second.

C[C@@H]1CN(c2nc(-c3ccc(F)cc3F)c3sc(N(C)C)nc3n2)C[C@H](c2ccc(=O)n(N)c2)O1 [Example 174, 1-amino-5-[(2S,6R)-4-[7-(2,4-difluorophenyl)-2-(dimethylamino)thiazolo[4,5-d]pyrimidin-5-yl]-6-methyl-morpholin-2-yl]pyridin-2-one] and [2H]C([2H])([2H])n1cc([C@H]2CN(c3nc(C45CC(C(F)(F)F)(C4)C5)c4nc(C)c(C)nc4n3)C[C@@H](C)O2)ccc1=O [Example 354] cannot be ordered by EC50: < 100 nM for the first, < 100 nM for the second.

Cc1nc2nc(N3C[C@@H](C)O[C@@H](c4ccc(=O)n(C5CC5)c4)C3)nc(C34CC(C(F)(F)F)(C3)C4)c2nc1C1COC1 [Example 183, 1-cyclopropyl-5-((2S,6R)-6-methyl-4-(7-methyl-6-(oxetan-3-yl)-4-(3-(trifluoromethyl)bicyclo[1.1.1]pentan-1-yl)pteridin-2-yl)morpholin-2-yl)pyridin-2(1H)-one] and Cc1nc2c(C34CC(C(F)(F)F)(C3)C4)nc([C@H]3CCO[C@@H](c4ccc(=O)n(C)c4)C3)nc2nc1C1CC1 [Example 155, 1-methyl-5-[(2R,4S)-4-[7-cyclopropyl-6-methyl-4-[3-(trifluoro-methyl)-1-bicyclo[1.1.1]pentanyl]-pteridin-2-yl]tetrahydropyran-2-yl]pyridin-2-one] cannot be ordered by EC50: < 100 nM for the first, < 100 nM for the second.

[2H]C([2H])([2H])c1nc2nc([C@H]3CCO[C@@H](c4ccc(=O)n(C5CC5)c4)C3)nc(C34CC(C(F)(F)F)(C3)C4)c2nc1C([2H])([2H])[2H] [Example 201, 5-((2R,4S)-4-(6,7-bis(methyl-d3)-4-(3-(trifluoromethyl)bicyclo[1.1.1]pentan-1-yl)pteridin-2-yl)tetrahydro-2H-pyran-2-yl)-1-cyclopropylpyridin-2 (1H)-one] and Cc1nc2c(C34CC(C(F)(F)F)(C3)C4)nc([C@H]3CCO[C@@H](c4ccc(=O)n(C)c4)C3)nc2c(=O)n1C (racemic) [Example 217, 2,3-dimethyl-6-[rac-(2R,4S)-2-(1-methyl-6-oxo-3-pyridyl)tetrahydropyran-4-yl]-8-[3-(trifluoromethyl)-1-bicyclo[1.1.1]pentanyl]pyrimido[5,4-d]pyrimidin-4-one] cannot be ordered by EC50: < 100 nM for the first, < 100 nM for the second.

First: COc1nc2c(C3CCCCC3)nc([C@H]3CCO[C@@H](c4ccc(=O)n(C)c4)C3)nc2nc1C [Example 136, 5-[(2R)-4-(4-cyclohexyl-6-methoxy-7-methyl-pteridin-2-yl)tetrahydropyran-2-yl]-1-methyl-pyridin-2-one]
Second: Cc1nc2nc([C@H]3CCO[C@H](c4ccc(=O)n(C)c4)C3)cc(C34CC(C(F)(F)F)(C3)C4)c2nc1C [Example 170, 1-methyl-5-[(2S,4S)-4-[2,3-dimethyl-8-[3-(trifluoromethyl)-1-bicyclo[1.1.1]pentanyl]pyrido[2,3-b]pyrazin-6-yl]tetrahydropyran-2-yl]pyridin-2-one]
The EC50 of the first is lower: < 100 nM for the first, 100 to 500 nM for the second.
